Our source for the IC50 values is patent US8828401B2, “Cytotoxic peptides and antibody drug conjugates thereof” (Pfizer Inc., priority 2011, dated 2014).

As a reminder, the IC50 is the concentration needed to halve the response being measured.

Starred links: 1 amine or outer side, 2 acyl side, 3 side chain; linkers in the order of their positions; H or OH if unused. Non-standard residues stand in square brackets, D forms with d. Residues, ends and D or L forms follow the SMILES beside them. *: point of attachment. Dolaproine = CO[C@@H]([C@@H]1CCCN1)[C@@H](C)C(=O)O; X12 = O=C([C@@H](N[*:1])[C@@H]1Cc2ccccc21)[*:2]; Dil = CC[C@H](C)[C@H](NC)[C@@H](CC(=O)O)OC; Phe(4-NH2) = Nc1ccc(C[C@H](N)C(=O)O)cc1; X10 = C[C@@H](N*)[C@@H](O)c1ccccc1; NMeαMePro = CN1CCC[C@@]1(C)C(=O)*; Ac4c(3-oxa) = NC1(C(=O)O)COC1; αMeP = C[C@@]1(C(=O)O)CCCN1; dIva = CC[C@@](C)(N)C(=O)O; X1 = CN1CCC[C@]1(C)C(=O)*; NMeAib = CNC(C)(C)C(=O)O; X8 = C1=CC=CC(CCN*)C=C1; Aib = CC(C)(N)C(=O)O; X14 = c1[nH]nnc1CN*

One assay concerns N87 (gastric cancer). Put plainly: In vitro cell assay, MTS cell viability 96 hours after treatment. Type of assay: cell-based. The settings on record: read-out: N87 GMEAN IC50, N87 cells; geometric mean; cytotoxic peptides. The method, then:
(§1) Cells were treated with 3-fold serially diluted antibody-drug conjugates or free compounds (i.e., no antibody conjugated to the drug) in duplicate at 10 concentrations. Cell viability was determined by CellTiter 96® AQueous One Solution Cell Proliferation MTS Assay (Promega, Madison Wis.) 96 hours after treatment. Relative cell viability was determined as percentage of untreated control.

Assay [1] concerns MDA-MB-361-DYT2 (breast cancer). The description is as above. Type of assay: cell-based. The settings on record: read-out: MDA-MB-361-DYT2 GMEAN IC50, MDA-MB-361-DYT2 cells; geometric mean; cytotoxic peptides. As for the experimental part: as §1

For `CC[C@H](C)[C@@H]([C@@H](CC(=O)N1CCC[C@H]1[C@H](OC)[C@@H](C)C(=S)N[C@@H](Cc1ccccc1)c1nccs1)OC)N(C)C(=O)[C@@H](NC(=O)[C@@H](NC)C(C)C)C(C)C` [#26, N-methyl-L-valyl-N-[(3R,4S,5S)-3-methoxy-1-{(2S)-2-[(1R,2R)-1-methoxy-2-methyl-3-{[(1S)-2-phenyl-1-(1,3-thiazol-2-yl)ethyl]amino}-3-thioxopropyl]pyrrolidin-1-yl}-5-methyl-1-oxoheptan-4-yl]-N-methyl-L-valinamide], the IC50 amounted to 0.543 nM in the assay with N87 (gastric cancer) and 1.04 nM in assay [1].

With `CC[C@H](C)[C@@H]([C@@H](CC(=O)N1CCC[C@H]1[C@H](OC)[C@@H](C)C(=S)NCCc1ccccc1)OC)N(C)C(=O)[C@@H](NC(=O)[C@@H](NC)C(C)C)C(C)C` [#36, N-methyl-L-valyl-N-{(3R,4S,5S)-3-methoxy-1-[(2S)-2-{(1R,2R)-1-methoxy-2-methyl-3-[(2-phenylethyl)amino]-3-thioxopropyl}pyrrolidin-1-yl]-5-methyl-1-oxoheptan-4-yl}-N-methyl-L-valinamide], the half-maximal inhibitory concentration (IC50) with N87 (gastric cancer) was found to be 1.21 nM; in assay [1] it was 1.11 nM. As to `CC[C@H](C)[C@@H]([C@@H](CC(=O)N1CCC[C@H]1[C@H](OC)[C@@H](C)C(=S)N[C@@H](Cc1ccccc1)C(=O)OC)OC)N(C)C(=O)[C@@H](NC(=O)C(C)(C)N)C(C)C` [#45, 2-methylalanyl-N-[(3R,4S,5S)-3-methoxy-1-{(2S)-2-[(1R,2R)-1-methoxy-3-{[(2S)-1-methoxy-1-oxo-3-phenylpropan-2-yl]amino}-2-methyl-3-thioxopropyl]pyrrolidin-1-yl}-5-methyl-1-oxoheptan-4-yl]-N-methyl-L-valinamide], the concentration for half-maximal inhibition (IC50) in the assay with N87 (gastric cancer) was 0.385 nM; in assay [1], 0.415 nM.

Consider `CC[C@H](C)[C@@H]([C@@H](CC(=O)N1CCC[C@H]1[C@H](OC)[C@@H](C)C(=O)NCCC1C=CC=CC=C1)OC)N(C)C(=O)[C@@H](NC(=O)C(C)(C)N)C(C)C` [#66, 2-Methylalanyl-N-[(3R,4S,5S)-1-{(2S)-2-[(1R,2R)-3-{[2-(cyclohepta-2,4,6-trien-1-yl)ethyl]amino}-1-methoxy-2-methyl-3-oxopropyl]pyrrolidin-1-yl}-3-methoxy-5-methyl-1-oxoheptan-4-yl]-N-methyl-L-valinamide] (H-[Aib]V[Dil][Dolaproine]-X8), for which, in assay [1], the IC50 was 0.334 nM. For the compound `CC[C@H](C)[C@@H]([C@@H](CC(=O)N1CCC[C@H]1[C@H](OC)[C@@H](C)C(=O)N[C@@H](Cc1ccccc1)C(=O)OC)OC)N(C)C(=O)[C@@H](NC(=O)C(C)(C)N)C(C)C` [#70, 2-methylalanyl-N-[(3R,4S,5S)-3-methoxy-1-{(2S)-2-[(1R,2R)-1-methoxy-3-{[(2S)-1-methoxy-1-oxo-3-phenylpropan-2-yl]amino}-2-methyl-3-oxopropyl]pyrrolidin-1-yl}-5-methyl-1-oxoheptan-4-yl]-N-methyl-L-valinamide] (H-[Aib]V[Dil][Dolaproine]F-OMe), the IC50 in the assay on N87 (gastric cancer) came out at 0.327 nM; in assay [1], 0.225 nM. For `CC[C@H](C)[C@@H]([C@@H](CC(=O)N1CCC[C@H]1[C@H](OC)[C@@H](C)C(=O)N[C@@H](Cc1ccccc1)C(=O)OC)OC)N(C)C(=O)[C@@H](NC(=O)C(C)(C)CN)C(C)C` [#126, methyl N-[(2R,3R)-3-{(2S)-1-[(3R,4S,5S)-4-{[N-(3-amino-2,2-dimethylpropanoyl)-L-valyl](methyl)amino}-3-methoxy-5-methylheptanoyl]pyrrolidin-2-yl}-3-methoxy-2-methylpropanoyl]-L-phenylalaninate], the 50% inhibitory concentration (IC50) in the assay with N87 (gastric cancer) is 0.375 nM; in assay [1], 0.454 nM. For `CC[C@H](C)[C@@H]([C@@H](CC(=O)N1CCC[C@H]1[C@H](OC)[C@@H](C)C(=O)N[C@H](C)[C@@H](O)c1ccccc1)OC)N(C)C(=O)[C@@H](NC(=O)[C@]1(C)CCCN1)C(C)C` [#134, 2-methyl-L-prolyl-N-[(3R,4S,5S)-1-{(2S)-2-[(1R,2R)-3-{[(1S,2R)-1-hydroxy-1-phenylpropan-2-yl]amino}-1-methoxy-2-methyl-3-oxopropyl]pyrrolidin-1-yl}-3-methoxy-5-methyl-1-oxoheptan-4-yl]-N-methyl-L-valinamide] (H-[αMeP]V[Dil][Dolaproine]-X10), in that order: 0.115 nM and 0.134 nM.

For `CC[C@H](C)[C@@H]([C@@H](CC(=O)N1CCC[C@H]1[C@H](OC)[C@@H](C)C(=O)N[C@H](C)[C@@H](O)c1ccccc1)OC)N(C)C(=O)[C@@H](NC(=O)C(C)(C)NC)C(C)C` [#145, N,2-dimethylalanyl-N-{(1S,2R)-4-{(2S)-2-[(1R,2R)-3-{[(1R,2S)-2-hydroxy-1-methyl-2-phenylethyl]amino}-1-methoxy-2-methyl-3-oxopropyl]pyrrolidin-1-yl}-2-methoxy-1-[(1S)-1-methylpropyl]-4-oxobutyl}-N-methyl-L-valinamide] (H-[NMeAib]V[Dil][Dolaproine]-X10), the half-maximal inhibitory concentration (IC50) amounted to 0.167 nM in the assay on N87 (gastric cancer) and 0.229 nM in assay [1]. As to `CC[C@H](C)[C@@H]([C@@H](CC(=O)N1CCC[C@H]1[C@H](OC)[C@@H](C)C(=O)N[C@@H](Cc1ccccc1)C(=O)OC)OC)N(C)C(=O)[C@@H](NC(=O)[C@](C)(N)CC)C(C)C` [#149, D-isovalyl-N-{(1S,2R)-4-{(2S)-2-[(1R,2R)-3-{[(1S)-1-benzyl-2-methoxy-2-oxoethyl]amino}-1-methoxy-2-methyl-3-oxopropyl]pyrrolidin-1-yl}-2-methoxy-1-[(1S)-1-methylpropyl]-4-oxobutyl}-N-methyl-L-valinamide] (H-[dIva]V[Dil][Dolaproine]F-OMe), the IC50 in assay [1] worked out at 0.428 nM.

Take `CC[C@H](C)[C@@H]([C@@H](CC(=O)N1CCC[C@H]1[C@H](OC)[C@@H](C)C(=O)N[C@@H](Cc1ccccc1)C(=O)O)OC)N(C)C(=O)[C@@H](NC(=O)[C@@]1(C)CCCN1C)C(C)C` [#153, 1,2-dimethyl-D-prolyl-N-{(1S,2R)-4-{(2S)-2-[(1R,2R)-3-{[(1S)-1-carboxy-2-phenylethyl]amino}-1-methoxy-2-methyl-3-oxopropyl]pyrrolidin-1-yl}-2-methoxy-1-[(1S)-1-methylpropyl]-4-oxobutyl}-N-methyl-L-valinamide] (X1-V[Dil][Dolaproine]F-OH): the concentration for half-maximal inhibition (IC50) in the assay on N87 (gastric cancer) is 47.3 nM; in assay [1], 91.3 nM. As for `CC[C@H](C)[C@@H]([C@@H](CC(=O)N1CCC[C@H]1[C@H](OC)[C@@H](C)C(=O)NCCC1C=CC=CC=C1)OC)N(C)C(=O)[C@@H](NC(=O)[C@]1(C)CCCN1)C(C)C` [#182, 2-methyl-L-prolyl-N-[(3R,4S,5S)-1-{(2S)-2-[(1R,2R)-3-{[2-(cyclohepta-2,4,6-trien-1-yl)ethyl]amino}-1-methoxy-2-methyl-3-oxopropyl]pyrrolidin-1-yl}-3-methoxy-5-methyl-1-oxoheptan-4-yl]-N-methyl-L-valinamide] (H-[αMeP]V[Dil][Dolaproine]-X8), the results for the IC50 (in the assay with N87 (gastric cancer); in assay [1]) were 0.148 nM and 0.122 nM, respectively.

On to `CC[C@H](C)[C@@H]([C@@H](CC(=O)N1CCC[C@H]1[C@H](OC)[C@@H](C)C(=O)N[C@@H](Cc1ccccc1)c1nccs1)OC)N(C)C(=O)[C@@H](NC(=O)[C@]1(C)CCCCN1)C(C)C` [#188, (2S)—N-[(2S)-1-{[(3R,4S,5S)-3-methoxy-1-{(2S)-2-[(1R,2R)-1-methoxy-2-methyl-3-oxo-3-{[(1S)-2-phenyl-1-(1,3-thiazol-2-yl)ethyl]amino}propyl]pyrrolidin-1-yl}-5-methyl-1-oxoheptan-4-yl](methyl)amino}-3-methyl-1-oxobutan-2-yl]-2-methylpiperidine-2-carboxamide], for which the half-inhibitory concentration (IC50) in assay [1] stood at 0.404 nM. As for `CC[C@H](C)[C@@H]([C@@H](CC(=O)N1CCC[C@H]1[C@H](OC)[C@@H](C)C(=O)N[C@@H](Cc1ccc2c(c1)CCCN2)C(=O)OC)OC)N(C)C(=O)[C@@H](NC(=O)[C@]1(C)CCCN1C)C(C)C` [#207, 1,2-dimethyl-L-prolyl-N-[(3R,4S,5S)-3-methoxy-1-{(2S)-2-[(1R,2R)-1-methoxy-3-{[(2S)-1-methoxy-1-oxo-3-(1,2,3,4-tetrahydroquinolin-6-yl)propan-2-yl]amino}-2-methyl-3-oxopropyl]pyrrolidin-1-yl}-5-methyl-1-oxoheptan-4-yl]-N-methyl-L-valinamide], the concentration for half-maximal inhibition (IC50) with N87 (gastric cancer) was found to be 0.626 nM. As to `CC[C@H](C)[C@@H]([C@@H](CC(=O)N1CCC[C@H]1[C@H](OC)[C@@H](C)C(=O)N[C@@H](Cc1ccc(N)cc1)C(=O)OC)OC)N(C)C(=O)[C@@H](NC(=O)[C@]1(C)CCCN1C)C(C)C` [#208, 1,2-dimethyl-L-prolyl-N-[(3R,4S,5S)-1-{(2S)-2-[(1R,2R)-3-{[(2S)-3-(4-aminophenyl)-1-methoxy-1-oxopropan-2-yl]amino}-1-methoxy-2-methyl-3-oxopropyl]pyrrolidin-1-yl}-3-methoxy-5-methyl-1-oxoheptan-4-yl]-N-methyl-L-valinamide] (NMeαMePro-V[Dil][Dolaproine][Phe(4-NH2)]-OMe), the figures for the concentration for half-maximal inhibition (IC50) (in the assay on N87 (gastric cancer); in assay [1]) were 0.379 nM and 0.336 nM, respectively. Regarding `CC[C@H](C)[C@@H]([C@@H](CC(=O)N1CCC[C@H]1[C@H](OC)[C@@H](C)C(=O)N[C@H](C(=O)OC)[C@@H]1Cc2ccccc21)OC)N(C)C(=O)[C@@H](NC(=O)C(C)(C)N)C(C)C` [#227] (H-[Aib]V[Dil][Dolaproine][X12]-OMe), the values for the IC50 (in the assay with N87 (gastric cancer); in assay [1]) were 19 nM and 12.9 nM, respectively.

Consider `CC[C@H](C)[C@@H]([C@@H](CC(=O)N1CCC[C@H]1[C@H](OC)[C@@H](C)C(=O)N[C@@H](Cc1ccccc1)C(=O)OC)OC)N(C)C(=O)[C@@H](NC(=O)C1(N)COC1)C(C)C` [#233] (H-[Ac4c(3-oxa)]V[Dil][Dolaproine]F-OMe), for which the IC50 in the assay with N87 (gastric cancer) is 8.41 nM; in assay [1], 5.04 nM. With `CC[C@H](C)[C@@H]([C@@H](CC(=O)N1CCC[C@H]1[C@H](OC)[C@@H](C)C(=O)N[C@@H](Cc1ccccc1)C(=O)NCc1c[nH]nn1)OC)N(C)C(=O)[C@@H](NC(=O)C(C)(C)NC)C(C)C` [#240] (H-[NMeAib]V[Dil][Dolaproine]F-X14), the values for the IC50 (in the assay on N87 (gastric cancer); in assay [1]) were 19.9 nM and 23.5 nM, respectively.
